Test results from patent US4620014A, “2-furylbutyrolactones and methods for using same” (priority 1983, dated 1986).

Tested on: L5178Y target cells
Experiment: MLTC assay of CTL activity, L5178Y target cells
Assay type: cell-based, mouse
Description: A mixed lymphocyte tumor culture (MLTC) immunoassay, used to determine the cytotoxic lymphocyte (CTL) activity employs lymphocytes from either immunized (sensitized) mice or DBA/2 tumor dormant state animals in various stages of the tumor dormant state (TDS). The assay employs L5178Y target cells labeled with ^51 Chromium and effector cells (sensitized lymphocytes) from the above-mentioned sources. Effector-target cell ratios will vary with different experimental conditions and may or may not include irradiated stimulator L5178Y cells. Results are expressed as % lysis of target cells based on ratio of cpm of test group over cpm of total release (maximum) both of which are corrected for spontaneous release of ^51 Cr. The assay can be performed as an 8 or 18 hour release assay.
Ten days later the resultant tumor nodule, about 1 cm in size, is surgically excised. If the excision was successful, no subcutaneous tumors develop at the site of implantation. […] These mice are considered to be in the tumor dormant state.
The effect of Cpd. 1 on cytotoxic lymphocyte (CTL) activity is measured using five DBA/2 mice in the early stage of the TDS, 10 days after challenge with viable L5178Y tumor cells. Six doses of Cpd. 1, 0.001, 0.01, 0.1, 1.0, 10, or 100 μg/ml or just buffer are added in 100 μl volumes to MLTC microculture wells containing washed spleen lymphocytes from the DBA/2 mice, effector, and L5178Y target cells at varying E/T ratios. The MLTC reaction is performed in the presence or absence of irradiated L5178Y stimulator cells.
Five DBA/2 mice in the early stage of the TDS, 10 days after challenge with viable L5178Y tumor cells were used to measure the effect of Cpd. 1 on CTL activity. Two doses of Cpd. 1, 10, or 100 μg/ml, or just buffer were added in 100 μl volumes to the MLTC microculture wells containing washed spleen lymphocytes from the DBA/2 mice, effector and L5178Y target cells at varying E/T ratios. The MLTC reaction was performed in the presence or absence of irradiated L5178Y stimulator cells.
DBA/2 mice in the early stage of TDS, […] with viable L5178Y tumor cells, were used to measure the effect of Cpd. 2 on CTL activity. Cpd. 2, 0.1, 1.0, 10 or 100 μg/ml, or just buffer was added in 100 μl volumes to MLTC microculture wells containing washed spleen lymphocytes from DBA/2 mice, effector, and L5178Y target cells at varying E/T ratios. The MLTC reaction was performed in the presence or absence of irradiated L5178Y stimulator cells.
An MLTC assay is performed to assess the CTL activity and tumor target cell specificity of Cpd. 1. Tumor dormant spleen cells and normal spleen cells of DBA/2 mice are used as effector cells. Irradiated L5178Y cells are used as stimulator cells. ^51 Cr-labeled L5178Y cells and FLC-745 cells are used as target cells. The effector/target ratios studied are 100:1, 30:1 and 10:1.

Question: For `Cc1ccc(C2(O)C(=O)OC3C(O)COC32O)o1.Cc1ccc(C2(O)C(=O)OC3C(O)COC32O)o1.O=C1CCC(=O)O1` (stereo not drawn) [Cpd. 1], which “% Lysis” value (0.001 μg/ml, E/T 10:1, TDS DBA/2, with stimulator cells) is on record?
Answer: The value was 16.7%.

Question: And the “% Lysis” value (0.001 μg/ml, E/T 10:1, TDS DBA/2, without stimulator cells)?
Answer: Its value is 3.9%.

Question: And the “% Lysis” value (0.001 μg/ml, E/T 30:1, TDS DBA/2, with stimulator cells)?
Answer: The value was 40.2%.

Question: And the “% Lysis” value (0.001 μg/ml, E/T 30:1, TDS DBA/2, without stimulator cells)?
Answer: The value was 12.2%.

Question: And the “% Lysis” value (0.001 μg/ml, E/T 100:1, TDS DBA/2, with stimulator cells)?
Answer: The value was 71.1%.

Question: What about the “% Lysis” value (0.001 μg/ml, E/T 100:1, TDS DBA/2, without stimulator cells) of the same molecule?
Answer: The value was 23.4%.

Question: And the “% Lysis” value (0.01 μg/ml, E/T 10:1, TDS DBA/2, with stimulator cells)?
Answer: The value was 20.6%.

Question: And the “% Lysis” value (0.01 μg/ml, E/T 10:1, TDS DBA/2, without stimulator cells)?
Answer: Its value is 3.5%.

Question: What about the “% Lysis” value (0.01 μg/ml, E/T 30:1, TDS DBA/2, with stimulator cells) of the same molecule?
Answer: The value was 55.8%.

Question: And the “% Lysis” value (0.01 μg/ml, E/T 30:1, TDS DBA/2, without stimulator cells)?
Answer: The value was 15.7%.

Question: And the “% Lysis” value (0.01 μg/ml, E/T 100:1, TDS DBA/2, with stimulator cells)?
Answer: Its value is 77.1%.

Question: What about the “% Lysis” value (0.01 μg/ml, E/T 100:1, TDS DBA/2, without stimulator cells) of the same molecule?
Answer: The value was 26.0%.

Question: And the “% Lysis” value (0.1 μg/ml, E/T 10:1, TDS DBA/2, with stimulator cells)?
Answer: The value was 20.2%.

Question: And the “% Lysis” value (0.1 μg/ml, E/T 10:1, TDS DBA/2, without stimulator cells)?
Answer: The value was 3.5%.

Question: What about the “% Lysis” value (0.1 μg/ml, E/T 30:1, TDS DBA/2, with stimulator cells) of the same molecule?
Answer: The value was 51.0%.

Question: And the “% Lysis” value (0.1 μg/ml, E/T 30:1, TDS DBA/2, without stimulator cells)?
Answer: Its value is 14.8%.

Question: What about the “% Lysis” value (0.1 μg/ml, E/T 100:1, TDS DBA/2, with stimulator cells) of the same molecule?
Answer: The value was 79.0%.

Question: And the “% Lysis” value (0.1 μg/ml, E/T 100:1, TDS DBA/2, without stimulator cells)?
Answer: Its value is 31.6%.

Question: And the “% Lysis” value (1.0 μg/ml, E/T 10:1, TDS DBA/2, with stimulator cells)?
Answer: Its value is 15.6%.

Question: What about the “% Lysis” value (1.0 μg/ml, E/T 10:1, TDS DBA/2, without stimulator cells) of the same molecule?
Answer: The value was 4.6%.

Question: What about the “% Lysis” value (1.0 μg/ml, E/T 30:1, TDS DBA/2, with stimulator cells) of the same molecule?
Answer: The value was 46.0%.

Question: What about the “% Lysis” value (1.0 μg/ml, E/T 30:1, TDS DBA/2, without stimulator cells) of the same molecule?
Answer: The value was 20.0%.

Question: And the “% Lysis” value (1.0 μg/ml, E/T 100:1, TDS DBA/2, with stimulator cells)?
Answer: The value was 71.5%.

Question: What about the “% Lysis” value (1.0 μg/ml, E/T 100:1, TDS DBA/2, without stimulator cells) of the same molecule?
Answer: Its value is 40.1%.

Question: And the “% Lysis” value (10 μg/ml, E/T 6.25:1, TDS DBA/2, with stimulator cells)?
Answer: Its value is 60.5%.

Question: And the “% Lysis” value (10 μg/ml, E/T 6.25:1, TDS DBA/2, without stimulator cells)?
Answer: Its value is “.7%”.

Question: What about the “% Lysis” value (10 μg/ml, E/T 10:1, TDS DBA/2, with stimulator cells) of the same molecule?
Answer: The value was 15.9%.

Question: And the “% Lysis” value (10 μg/ml, E/T 10:1, TDS DBA/2, without stimulator cells)?
Answer: Its value is 4.6%.

Question: What about the “% Lysis” value (10 μg/ml, E/T 12.5:1, TDS DBA/2, with stimulator cells) of the same molecule?
Answer: Its value is 67.1%.

Question: And the “% Lysis” value (10 μg/ml, E/T 12.5:1, TDS DBA/2, without stimulator cells)?
Answer: The value was 6.9%.

Question: What about the “% Lysis” value (10 μg/ml, E/T 25:1, TDS DBA/2, with stimulator cells) of the same molecule?
Answer: Its value is 72.0%.

Question: And the “% Lysis” value (10 μg/ml, E/T 25:1, TDS DBA/2, without stimulator cells)?
Answer: Its value is 8.1%.

Question: And the “% Lysis” value (10 μg/ml, E/T 30:1, TDS DBA/2, with stimulator cells)?
Answer: The value was 42.0%.

Question: What about the “% Lysis” value (10 μg/ml, E/T 30:1, TDS DBA/2, without stimulator cells) of the same molecule?
Answer: The value was 16.8%.

Question: And the “% Lysis” value (10 μg/ml, E/T 50:1, TDS DBA/2, with stimulator cells)?
Answer: The value was 75.7%.

Question: And the “% Lysis” value (10 μg/ml, E/T 50:1, TDS DBA/2, without stimulator cells)?
Answer: Its value is 12.8%.

Question: And the “% Lysis” value (10 μg/ml, E/T 100:1, TDS DBA/2, with stimulator cells)?
Answer: Its value is 74.3%.

Question: What about the “% Lysis” value (10 μg/ml, E/T 100:1, TDS DBA/2, without stimulator cells) of the same molecule?
Answer: Its value is 36.3%.

Question: And the “% Lysis” value (100 μg/ml, E/T 6.25:1, TDS DBA/2, with stimulator cells)?
Answer: Its value is 56.3%.

Question: What about the “% Lysis” value (100 μg/ml, E/T 6.25:1, TDS DBA/2, without stimulator cells) of the same molecule?
Answer: The value was 6.1%.

Question: What about the “% Lysis” value (100 μg/ml, E/T 10:1, TDS DBA/2, with stimulator cells) of the same molecule?
Answer: The value was 21.2%.

Question: And the “% Lysis” value (100 μg/ml, E/T 10:1, TDS DBA/2, without stimulator cells)?
Answer: The value was 8.6%.

Question: What about the “% Lysis” value (100 μg/ml, E/T 12.5:1, TDS DBA/2, with stimulator cells) of the same molecule?
Answer: The value was 75.7%.

Question: What about the “% Lysis” value (100 μg/ml, E/T 12.5:1, TDS DBA/2, without stimulator cells) of the same molecule?
Answer: Its value is 11.1%.

Question: What about the “% Lysis” value (100 μg/ml, E/T 25:1, TDS DBA/2, with stimulator cells) of the same molecule?
Answer: Its value is 79.8%.

Question: And the “% Lysis” value (100 μg/ml, E/T 25:1, TDS DBA/2, without stimulator cells)?
Answer: The value was 16.6%.

Question: And the “% Lysis” value (100 μg/ml, E/T 30:1, TDS DBA/2, with stimulator cells)?
Answer: Its value is 54.2%.

Question: And the “% Lysis” value (100 μg/ml, E/T 30:1, TDS DBA/2, without stimulator cells)?
Answer: Its value is 18.7%.

Question: What about the “% Lysis” value (100 μg/ml, E/T 50:1, TDS DBA/2, with stimulator cells) of the same molecule?
Answer: Its value is 71.6%.

Question: And the “% Lysis” value (100 μg/ml, E/T 50:1, TDS DBA/2, without stimulator cells)?
Answer: The value was 21.8%.

Question: And the “% Lysis” value (100 μg/ml, E/T 100:1, TDS DBA/2, with stimulator cells)?
Answer: The value was 87.3%.

Question: And the “% Lysis” value (100 μg/ml, E/T 100:1, TDS DBA/2, without stimulator cells)?
Answer: Its value is 42.0%.

Question: And the “% Lysis” value (E + D (TDS effector, no stimulator), E/T 10:1)?
Answer: The value was 9.0%.

Question: And the “% Lysis” value (E + D (TDS effector, no stimulator), E/T 30:1)?
Answer: The value was 29.8%.

Question: And the “% Lysis” value (E + D (TDS effector, no stimulator), E/T 100:1)?
Answer: The value was 52.8%.

Question: And the “% Lysis” value (E + S + D (TDS effector, stimulator), E/T 10:1)?
Answer: Its value is 34.9%.

Question: And the “% Lysis” value (E + S + D (TDS effector, stimulator), E/T 30:1)?
Answer: The value was 69.2%.

Question: And the “% Lysis” value (E + S + D (TDS effector, stimulator), E/T 100:1)?
Answer: The value was 82.3%.

Question: What about the “% Lysis” value (N + D (normal effector, no stimulator), E/T 10:1) of the same molecule?
Answer: The value was -10.3%.

Question: And the “% Lysis” value (N + D (normal effector, no stimulator), E/T 30:1)?
Answer: Its value is -11.4%.

Question: And the “% Lysis” value (N + D (normal effector, no stimulator), E/T 100:1)?
Answer: The value was -12.4%.

Question: What about the “% Lysis” value (N + S + D (normal effector, stimulator), E/T 10:1) of the same molecule?
Answer: The value was -10.9%.

Question: And the “% Lysis” value (N + S + D (normal effector, stimulator), E/T 30:1)?
Answer: Its value is -9.7%.

Question: And the “% Lysis” value (N + S + D (normal effector, stimulator), E/T 100:1)?
Answer: Its value is -9.5%.

Question: And the “CTL activity of effector cells” value (in the presence of stimulator cells (Example 28))?
Answer: Its value is “significant specific enhancement of CTL activity”.

Question: What about the CTL activity (several concentrations, any E/T ratio, with or without stimulator cells, TDS) of the same molecule?
Answer: The CTL activity was “significant increase in CTL activity”.
